Reference: patent US7956062B2, “Reactive oxygen generating enzyme inhibitor with nitric oxide bioactivity and uses thereof” (Duke University, priority 2004, dated 2011)

Assays:
[1] = tested on: Isolated cardiac myocytes from nNOS deficient rats; assay: Isolated cardiac myocytes: sarcomere length and systolic calcium transient responses; format: cell-based; settings: versus baseline; for sarcomere length (SL), a measure of myocardial contraction (% change from baseline): FIG. 1A; for systolic calcium transient (% change from baseline): FIG. 1B
Description: Isolated cardiac myocytes from nNOS deficient rats (known to have increased xanthine oxidase activity), were evaluated for responses at baseline (BL or bl), then to allopurinol, then to nitrated allopurinol. The concentration of allopurinol used was 0.5×10^−3 M. The concentration of nitrated allopurinol used was 10^−4M. Evaluation was carried out for sarcomere length (SL), a measure of myocardial contraction, and for systolic calcium transient which drives myocardial contraction. The results for evaluation of sarcomere length are shown in FIG. 1A and results for evaluation of systolic calcium transient are shown in FIG. 1B.

hyperlipidemia = assay: Patient case, hyperlipidemia with calcification of coronaries and aorta (Working Example VI); format: in vivo; settings: 300 mg/day; over the following two years
[2] = tested on: crush wound to their left lower extremity, ischemic for six hours; assay: Patient case, ischemic crush wound with revascularization (Working Example IV); format: in vivo; settings: emergency surgery
Text: A person has a crush wound to their left lower extremity and undergoes emergency surgery.

[3] = tested on: asthmatic with frequent exacerbations; assay: Patient case, asthma (Working Example XIV); format: in vivo; settings: 300 mg/day
Description: A asthmatic with frequent exacerbations is begun on 300 mg/day nitrated allopurinol (16).

sickle cell disease = assay: Patient case, sickle cell disease (Working Example V); format: in vivo; settings: 300 mg/day, over the following year
Description: A person with sickle cell disease presents with pulmonary hypertension and LFT abnormalities. They had had four admissions to the emergency in the past year with painful crisis. They are begun n 300 mg/day of nitrated allopurinol (16) with a decrease in their pulmonary artery pressure over the following year from a mean of 35 mm Hg to 30 mm Hg.

class 3 angina = assay: Patient case, class 3 angina (Working Example III); format: in vivo; settings: 300 mg/day; over two weeks; class 3 before treatment
Description: A person with class 3 angina is begun on nitrated allopurinol (16), 300 mg/day.

dilated cardiomyopathy = assay: Patient case, dilated cardiomyopathy (Working Example II); format: in vivo; settings: 300 mg PO BID, over the ensuing week
Text: A person presents with a dilated cardiomyopathy and is begun on a standard regimen including ace inhibitors, diuretics, and digoxin with little improvement.

Alzheimer's disease = assay: Patient case, Alzheimer's disease (Working Example XI); format: in vivo; settings: 300 mg/day; after 3 months
Description: A person with Alzheimer's disease is begun on 300 mg/day nitrated allopurinol (16). Their memory and cognitive function stabilizes after 3 months.

[4] = tested on: bleomycin-induced lung injury; assay: Patient case, bleomycin-induced lung injury (Working Example VII); format: in vivo; settings: 300 PO BID; over the following week; on 50% oxygen; from 60 (on 100% oxygen)
Text: A person with bleomycin-induced lung injury is begun on nitrated allopurinol (16), 300 PO BID. The PO2 improves from 60 (on 100% oxygen) to 65 mm Hg on 50% oxygen over the following week.

leg pain and diabetes = assay: Patient case, leg pain and diabetes (Working Example XII); format: in vivo; settings: 300 mg/day
ALS = assay: Patient case, ALS (Working Example XIII); format: in vivo; settings: 300 mg/day; after three weeks
Description: A person with ALS with progressive deterioration, stabilizes after three weeks at 300 mg/day of nitrated allopurinol (16).

Parkinson's disease = assay: Patient case, Parkinson's disease (Working Example X); format: in vivo; settings: 300 mg/day; after three weeks; treated with L-dopa
Text: A person with Parkinson's disease treated with L-dopa has persistent tremor and motor problems.

[5] = tested on: congestive heart failure and a dilated cardiomyopathy; assay: Patient case, congestive heart failure and dilated cardiomyopathy (Working Example IX); format: in vivo; settings: 300 mg POQD, one week later
Description: A person with congestive heart failure and a dilated cardiomyopathy is begun on nitrated allopurinol (16), 300 mg POQD. One week later, their ejection fraction had improved from 35% to 40%, their blood pressure had decreased from 130/80 to 110/80, and […] pO2 has improved from 70 to 80 mm Hg on room air.

SMILES: Oc1ncnc2[nH]ncc12 [allopurinol, reference compound]
- sarcomere length (SL), a measure of myocardial contraction (% change from baseline) ([1]; allopurinol 0.5×10^−3 M): rise
- systolic calcium transient (% change from baseline) ([1]; allopurinol 0.5×10^−3 M): rise

SMILES: O=c1c2cnn(CCCO[N+](=O)[O-])c2ncn1CCCO[N+](=O)[O-] [nitrated allopurinol (16), 1,5-bis(3-nitrooxypropyl)-1,5-dihydro-4H-pyrazolo[3,4-d]pyrimidin-4-one]
- disease (calcification of coronaries and aorta) (hyperlipidemia): mild regression of their disease
- aggravation of injury following revascularization [2]: no aggravation of injury following revascularization
- steroid use [3]: successfully tapered
- sarcomere length (SL), a measure of myocardial contraction (% change from baseline) ([1]; nitrated allopurinol 10^−4M): increase obtained for nitrated allopurinol being greater than increase obtained for allopurinol
- systolic calcium transient (% change from baseline) ([1]; nitrated allopurinol 10^−4M): increase obtained for nitrated allopurinol being greater than increase obtained for allopurinol
- LFT abnormalities (sickle cell disease): resolve
- painful crisis (sickle cell disease; four admissions with painful crisis in the past year): only one painful crisis
- pulmonary artery pressure (mean) (sickle cell disease; from a mean of 35 mm Hg): 30 mm Hg
- angina classification (class 3 angina): improved to class 2
- shortness of breath (dilated cardiomyopathy): decrease in a shortness of breath
- left ventricular function (dilated cardiomyopathy; on standard regimen with little improvement): improvement of left ventricular function
- memory and cognitive function (Alzheimer's disease): stabilizes
- PO2 [4]: 65 mm Hg
- pain (leg pain) (leg pain and diabetes): pain decreases
- distance they can walk (leg pain and diabetes; unresponsive to treatment before): improves
- progressive deterioration (ALS): stabilizes
- symptoms (persistent tremor and motor problems) (Parkinson's disease): symptoms improve
- symptoms on angina [5]: decreased
- ejection fraction ([5]; from 35%): 40%
- blood pressure ([5]; from 130/80): 110/80
- pO2 ([5]; on room air, from 70): 80 mm Hg
